# Measurements published in patent US20170166555A1, “FUNCTIONALISED AND SUBSTITUTED INDOLES AS ANTI-CANCER AGENTS” (Novogen Limited, priority 2013, published 2017).
# Where two headings read alike, the source gives them in different places.
# Columns and labels:
# Assay in all cases: Anti-proliferative assay, cell-titre luminescent reagent, 72 h (GVK-BIO)
# Assay type in all cases: cell-based
# SK-Mel-28 melanoma cells = conditions: Homo sapiens
# Method: (§1) The ability of compounds 4001, 4002, 4008, 4010, 4011, 4013-4015, 4018, 4026, 4045-4113 and 4115-4127 to inhibit the proliferation of cancer cells representative of neuroblastoma, melanoma, prostate cancer, colorectal cancer, non-small cell lung carcinoma, and triple negative breast cancer was assessed. These studies were conducted by contract research (GVK-BIO). Briefly, a pre-determined number of cells as calculated from cell growth assays for each of the cell lines employed were seeded into their respective culture medium (using ATCC culture parameters—http://www.atcc.org) and cultured for 24 h at 37° C. and 5% CO2 in 96-well culture plates. Once attached, each cell line was then exposed to various concentrations of each respective analogue (30, 3, 0.3 and 0.03 μM for compounds in Tables 2, 3 and 4; 30, 10, 3, 1, 0.3 and 0.1 μM for compounds in Table 5), cultured for a further 72 h and exposed to cell-titre luminescent reagent (100 μL/well) for a further 30 min). Luminescence was captured using an EnVision multilabel reader and the data for each analogue concentration compared against no treatment control. For compounds in Tables 2-4, semi-log plots of Percent of Control versus concentration were prepared and IC50 determined using linear regression analysis. For compounds in Table 5, cell viability was normalized to control (vehicle alone) and dose-response curves, and half maximal effective concentration (EC50) values were determined using Graph Pad Prism 6 (nonlinear regression sigmoidal dose-response variable slope).
# [1] = tested on: A549 non-small cell lung carcinoma cells; conditions: Homo sapiens, read-out: IC50/μM Lung (NSLC) A549
# Method: as §1
# [2] = tested on: DU145 prostate cancer cells; conditions: Homo sapiens
# Method: as §1
# [3] = tested on: PC3 prostate cancer cells
# Method: as §1
# [4] = tested on: SK-N-SH neuroblastoma cells; conditions: Homo sapiens
# Method: as §1
# [5] = tested on: MDA-MB-231 triple negative breast cancer cells; conditions: Homo sapiens
# Method: as §1
# [6] = tested on: CaCo2 colorectal cancer cells; conditions: Homo sapiens
# Method: as §1
# [7] = SK-MEL-28, 72 h, 30, 10, 3, 1, 0.3 and 0.1 μM, nonlinear regression (Table 5)
# [8] = A549, 72 h, 30, 10, 3, 1, 0.3 and 0.1 μM, nonlinear regression (Table 5)
# [9] = DU-145, 72 h, 30, 10, 3, 1, 0.3 and 0.1 μM, nonlinear regression (Table 5)
# [10] = 30, 10, 3, 1, 0.3 and 0.1 μM, nonlinear regression (Table 5)
# [11] = SK-N-SH, 30, 10, 3, 1, 0.3 and 0.1 μM, nonlinear regression (Table 5)
# [12] = MDA-MB-231, 72 h, 30, 10, 3, 1, 0.3 and 0.1 μM, nonlinear regression (Table 5)
# [13] = Caco-2, 72 h, 30, 10, 3, 1, 0.3 and 0.1 μM, nonlinear regression (Table 5)
# [14] = SK-MEL-28, 72 h, 30, 3, 0.3 and 0.03 μM, linear regression (Tables 2-4)
# [15] = A549, 72 h, 30, 3, 0.3 and 0.03 μM, linear regression (Tables 2-4)
# [16] = DU-145, 72 h, 30, 3, 0.3 and 0.03 μM, linear regression (Tables 2-4)
# [17] = 30, 3, 0.3 and 0.03 μM, linear regression (Tables 2-4)
# [18] = SK-N-SH, 30, 3, 0.3 and 0.03 μM, linear regression (Tables 2-4)
# [19] = MDA-MB-231, 72 h, 30, 3, 0.3 and 0.03 μM, linear regression (Tables 2-4)
# [20] = Caco-2, 72 h, 30, 3, 0.3 and 0.03 μM, linear regression (Tables 2-4)
SMILES,IC50 (SK-Mel-28 melanoma cells; [7]),"IC50 [1, 8]","IC50 [2, 9]","IC50 [3, 10]","IC50 [4, 11]","IC50 [5, 12]","IC50 [6, 13]",IC50 (SK-Mel-28 melanoma cells; [14]),"IC50 [1, 15]","IC50 [2, 16]","IC50 [3, 17]","IC50 [4, 18]","IC50 [5, 19]","IC50 [6, 20]"
"CN(C)CCCn1ccc2cc(Oc3ccc(C(=O)Nc4cccc(F)c4)cc3)ccc21 [Compound 4091, 4-((1-(3-(dimethylamino)propyl)-1H-indol-5-yl)oxy)-N-(3-fluorophenyl)benzamide]",15.4 µM,9.5 µM,10.6 µM,19.6 µM,9.7 µM,28.9 µM,10.2 µM,,,,,,,
"COc1cccc(CCN2CCN(Cc3ccc4c(c3)c(C)c(C)n4CCCN3CCN(C)CC3)CC2)c1 [Compound 4115, 5-((4-(3-methoxyphenethyl)piperazin-1-yl)methyl)-2,3-dimethyl-1-(3-(4-methylpiperazin-1-yl)propyl)-1H-indole]",1.1 µM,8.8 µM,6.1 µM,9.4 µM,4.9 µM,3.4 µM,6.2 µM,,,,,,,
"Cc1c(C)n(CCCN2CCN(C)CC2)c2ccc(CN3CCN(CCc4ccc(O)cc4)CC3)cc12 [Compound 4112, 4-(2-(4-((2,3-dimethyl-1-(3-(4-methylpiperazin-1-yl)propyl)-1H-indol-5-yl)methyl)piperazin-1-yl)ethyl)phenol]",13 µM,5.9 µM,8.3 µM,8.4 µM,7 µM,11.8 µM,17.5 µM,,,,,,,
"COc1ccc(NC(=O)c2ccc(Cc3ccc4c(ccn4CCCN(C)C)c3)cc2)cc1 [Compound 4078, 4-((1-(3-(dimethylamino)propyl)-1H-indol-5-yl)methyl)-N-(4-methoxyphenyl)benzamide]",,,,,,,,1.9 µM,1.4 µM,1.4 µM,1.2 µM,6.5 µM,1.6 µM,3.6 µM
"CN(C)CCCn1ccc2cc(Nc3ccc(C(=O)Nc4ccccc4)cc3)ccc21 [Compound 4026, 4-((1-(3-(dimethylamino)propyl)-1H-indol-5-yl)amino)-N-phenylbenzamide]",,,,,,,,5.9 µM,3.8 µM,5 µM,6.1 µM,3.7 µM,3.5 µM,15.4 µM
COc1cccc(NC(=O)c2cccc(Nc3ccc4c(ccn4CCCN(C)C)c3)c2)c1 [Compound 4071],,,,,,,,4.9 µM,4 µM,4.7 µM,7.6 µM,3.7 µM,3.4 µM,12 µM
"CN(C)CCCn1ccc2cc(Nc3ccc(C(=O)Nc4ccc5c(c4)OCO5)cc3)ccc21 [Compound 4101, N-(benzo[d][1,3]dioxol-5-yl)-4-((1-(3-(dimethylamino)propyl)-1H-indol-5-yl)amino)benzamide]",,,,,,,,3.3 µM,4 µM,5.2 µM,7.8 µM,3.4 µM,3.9 µM,> 30 µM
"Cc1c(C)n(CCCN(C)C)c2ccc(Cc3cccc(C(=O)Nc4ccc5c(c4)OCO5)c3)cc12 [Compound 4052, N-(benzo[d][1,3]dioxol-5-yl)-3-((1-(3-(dimethylamino)propyl)-2,3-dimethyl-1H-indol-5-yl)methyl)benzamide]",,,,,,,,6.2 µM,8 µM,13.8 µM,11.1 µM,31.9 µM,30 µM,27.1 µM
"COc1ccc(NC(=O)c2ccc(Nc3ccc4c(ccn4CCCN(C)C)c3)cc2)cc1 [Compound 4100, 4-((1-(3-(dimethylamino)propyl)-1H-indol-5-yl)amino)-N-(4-methoxyphenyl)benzamide]",,,,,,,,2.5 µM,4.5 µM,> 30 µM,> 30 µM,3.6 µM,5.2 µM,> 30 µM
"Cc1c(C)n(CCCN(C)C)c2ccc(Cc3ccc(C(=O)Nc4ccc5c(c4)OCO5)cc3)cc12 [Compound 4084, N-(benzo[d][1,3]dioxol-5-yl)-4-((1-(3-(dimethylamino)propyl)-2,3-dimethyl-1H-indol-5-yl)methyl)benzamide]",5.5 µM,6 µM,4.8 µM,3.5 µM,10.6 µM,6.5 µM,7.1 µM,,,,,,,
"CN(C)CCCn1ccc2cc(Cc3ccc(C(=O)Nc4ccc(F)cc4)cc3)ccc21 [Compound 4077, 4-((1-(3-(dimethylamino)propyl)-1H-indol-5-yl)methyl)-N-(4-fluorophenyl)benzamide]",,,,,,,,2.7 µM,3.3 µM,3.2 µM,2.8 µM,3.1 µM,3.4 µM,3.3 µM
"CN(C)CCCn1ccc2cc(Cc3ccc(C(=O)Nc4ccc5c(c4)OCO5)cc3)ccc21 [Compound 4079, N-(benzo[d][1, 3]dioxol-5-yl)-4-((1-(3-(dimethylamino)propyl)-1H-indol-5-yl)methyl)benzamide]",,,,,,,,2.8 µM,3.1 µM,3.1 µM,1.8 µM,2.9 µM,4.3 µM,> 30 µM

# More lines, now with the values ahead:
IC50 (SK-Mel-28 melanoma cells; [7]),"IC50 [1, 8]","IC50 [2, 9]","IC50 [3, 10]","IC50 [4, 11]","IC50 [5, 12]","IC50 [6, 13]",IC50 (SK-Mel-28 melanoma cells; [14]),"IC50 [1, 15]","IC50 [2, 16]","IC50 [3, 17]","IC50 [4, 18]","IC50 [5, 19]","IC50 [6, 20]",SMILES
4.6 µM,4.9 µM,2.6 µM,3.9 µM,4.8 µM,4.2 µM,4 µM,,,,,,,,"Cc1c(C)n(CCCN(C)C)c2ccc(Cc3ccc(C(=O)Nc4ccc(F)cc4)cc3)cc12 [Compound 4082, 4-((1-(3-(dimethylamino)propyl)-2,3-dimethyl-1H-indol-5-yl)methyl)-N-(4-fluorophenyl)benzamide]"
,,,,,,,4.3 µM,2.3 µM,4.4 µM,9 µM,4.8 µM,3.7 µM,6 µM,COc1ccc(NC(=O)c2cccc(Oc3ccc4c(c3)c(C)c(C)n4CCCN(C)C)c2)cc1 [Compound 4062]
3.8 µM,2.7 µM,2 µM,1.5 µM,1.8 µM,1.7 µM,4.2 µM,,,,,,,,"COc1ccc(NC(=O)c2ccc(Oc3ccc4c(c3)c(C)c(C)n4CCCN(C)C)cc2)cc1 [Compound 4094, 4-((1-(3-(dimethylamino)propyl)-2,3-dimethyl-1H-indol-5-yl)oxy)-N-(4-methoxyphenyl)benzamide]"
,,,,,,,2.8 µM,4.2 µM,4 µM,5 µM,3.6 µM,2.8 µM,4 µM,COc1cccc(NC(=O)c2cccc(Oc3ccc4c(ccn4CCCN(C)C)c3)c2)c1 [Compound 4060]
4.3 µM,7.7 µM,4.4 µM,4.4 µM,4.4 µM,5.2 µM,13.2 µM,,,,,,,,"COc1ccc(NC(=O)c2ccc(Oc3ccc4c(ccn4CCCN(C)C)c3)cc2)cc1 [Compound 4089, 4-((1-(3-(dimethylamino)propyl)-1H-indol-5-yl)oxy)-N-(4-methoxyphenyl)benzamide]"
,,,,,,,4.1 µM,3.9 µM,4.5 µM,3.9 µM,4.5 µM,4.6 µM,5.1 µM,COc1cccc(NC(=O)c2cccc(Cc3ccc4c(c3)c(C)c(C)n4CCCN(C)C)c2)c1 [Compound 4054]
,,,,,,,2.1 µM,1.8 µM,3.2 µM,3.7 µM,2.8 µM,1.7 µM,2.9 µM,"COc1cccc(NC(=O)c2cccc(Nc3ccc4c(c3)c(C)c(C)n4CCCN(C)C)c2)c1 [Compound 4076, 3-((1-(3-(dimethylamino)propyl)-2,3-dimethyl-1H-indol-5-yl)amino)-N-(3-methoxyphenyl)benzamide]"
